Reference: patent US20110178070A1, “PI3K/mTOR INHIBITORS” (TAKEDA PHARMACEUTICAL COMPANY LIMITED, priority 2008, published 2011)
Where two headings read alike, the source gives them in different places.

Columns and labels:
mTOR = mTOR (Homo sapiens, UniProt P42345); assay: Z-Lyte biochemical assay, inhibition of mTOR (Example A);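 further: synthetic Ser/Thr peptide with coumarin–fluorescein FRET pair, phosphorylation protects from protease cleavage, coumarin/fluorescein emission ratio after 400 nm excitation, 1 h kinase reaction, 10-point 3-fold titrations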
Method: The inhibitory property of a compound relative to mTOR catalysis was determined by using the Z-Lyte™ biochemical assay conducted by Invitrogen Corporation (Madison, Wis.), which employs a fluorescence-based, coupled-enzyme format and is based on the differential sensitivity of phosphorylated and non-phosphorylated peptides to proteolytic cleavage. The peptide substrate is labeled with two fluorophores—one at each end—that make up a FRET pair.
In the primary reaction, the kinase transfers the gamma-phosphate of ATP to a single tyrosine, serine or threonine residue in a synthetic FRET-peptide. In the secondary reaction, a site-specific protease recognizes and cleaves non-phosphorylated FRET-peptides. Phosphorylation of FRET-peptides suppresses cleavage by the Development Reagent. Cleavage disrupts FRET between the donor (i.e., coumarin) and acceptor (i.e., fluorescein) fluorophores on the FRET-peptide, whereas uncleaved, phosphorylated FRET-peptides maintain FRET. A ratio metric method, which calculates the ratio (the Emission Ratio) of donor emission to acceptor emission after excitation of the donor fluorophore at 400 nm, is used to quantitate reaction progress, as shown in the equation below.
A significant benefit of this ratio metric method for quantitating reaction progress is the elimination of well-to-well variations in FRET-peptide concentration and signal intensities. […] Both cleaved and uncleaved FRET-peptides contribute to the fluorescence signals and therefore to the Emission Ratio. The extent of phosphorylation of the FRET-peptide can be calculated from the Emission Ratio.
Recombinant human mTOR enzyme (amino acids 1360-2549), GST-tagged, expressed in and purified from insect cells (Invitrogen Corp. Cat. #PV4753; also known as FRAP1) was used for the assay. The 2×FRAP1 (mTOR)/Ser/Thr 11 Peptide Mixture (Invitrogen Corp.) was prepared in buffer containing 50 mM HEPES pH 7.5, 0.01% BRIJ-35, 10 mM MnCl2, 1 mM EGTA, 2 mM DTT, and 0.02% NaN3. The final 10 μL Kinase Reaction consisted of 7.2-58.1 ng FRAP1 (mTOR) and 2 μM Ser/Thr 11 Peptide in buffer containing 50 mM HEPES pH 7.5, 0.01% BRIJ-35, 5 mM MgCl2, 5 mM MnCl2, 1 mM EGTA, 1 mM DTT, and 0.01% NaN3.
Test compounds are screened in 1% DMSO (final) in the well. For 10 point titrations, 3-fold serial dilutions are conducted from the starting concentration. The Ser/Thr 11 Peptide/Kinase Mixture was diluted to a 2× working concentration in buffer containing 50 mM HEPES pH 7.5, 0.01% BRIJ-35, 10 mM MnCl2, 1 mM EGTA, 2 mM DTT, and 0.02% NaN3. The ATP solution was diluted to a 4× working concentration in buffer containing 50 mM HEPES pH 7.5, 0.01% BRIJ-35, 10 mM MgCl2, and 1 mM EGTA.
After the 1 hour Kinase Reaction incubation, 5 μL of a 1:16 dilution of Development Reagent B was added, and the development reaction was allowed to proceed for an additional 1 hour at room temperature. The assay plate was then read on a fluorescence plate reader and the data analyzed as outlined above.
IC50 values were calculated by non-linear least squares curve fitting using XLfit from IDBS to fit the results to model number 205 (sigmoidal dose-response model).

[1] = biological target: T1, PI3Kalpha (PIK3CA/PIK3R1, p110 alpha/p85 alpha) (Homo sapiens, UniProt P42336); assay: Adapta universal kinase assay, inhibition of PI3Kalpha (Example B); format: biochemical
T1 construct: recombinant human, full length, N-terminal His-tagged phosphoinositide-3-kinase catalytic subunit alpha polypeptide; His (N); purchased Invitrogen Corp. PV4788; host or cells: insect cells
Excerpt: In contrast to ATP depletion assays, the Adapta™ assay is extremely sensitive to ADP formation such that a majority of the signal change occurs in the first 10-20% conversion of ATP to ADP. This makes the Adapta™ universal kinase assay ideally suited for use with low activity kinases.
The principle of the Adapta™ universal kinase assay is outlined below. The assay itself can be divided into two phases: a kinase reaction phase, and an ADP detection phase. In the kinase reaction phase, all components required for the kinase reaction are added to the well, and the reaction is allowed to incubate for 60 minutes. After the reaction, a detection solution consisting of a europium labeled anti-ADP antibody, an Alexa Fluor® 647 labeled ADP tracer, and EDTA (to stop the kinase reaction) is added to the assay well. ADP formed by the kinase reaction (in the absence of an inhibitor) will displace the Alexa Fluor® 647 labeled ADP tracer from the antibody, resulting in a decrease in the TR-FRET signal.
ADP formation is determined by calculating the emission ratio from the assay well. The emission ratio is calculated by dividing the intensity of the tracer (acceptor) emission by the intensity of the Eu (donor) emission at 615 nm as shown in the equation below.
Since the Adapta™ technology measures ADP formation (i.e. conversion of ATP to ADP) it can be used to measure any type of ATP hydrolysis, including intrinsic ATPase activity of kinases. In this case, the substrate is water, not a lipid or peptide (Kashem, et al., 2007, J. Biomol. Screen. 12, 1, 70-83).
The combination of recombinant human, full length, N-terminal His-tagged phosphoinositide-3-kinase catalytic subunit alpha polypeptide ([…], PI3Kalpha), expressed in and purified from insect cells along with co-expressed recombinant, full length, untagged phosphoinositide-3-kinase regulatory subunit 1 (p85 alpha) (combination also known as PIK3CA/PIK3R1; Invitrogen Corp. Cat # PV4788) was used as the enzyme for this assay.
The test compounds are screened at 1% DMSO (final) in the well. […] The PIP2:PS Substrate/Kinase Mixture was diluted 2× to working concentration in Kinase Buffer containing 50 mM HEPES pH 7.5, 0.1% CHAPS, and 1 mM EGTA. […] The Detection Mix was prepared in TR-FRET Dilution Buffer.
After the 1 hour Kinase Reaction incubation at room temperature, 5 μL of Detection Mix was added, followed by another 30 sec plate shake to ensure mixing, and the Detection Mix was allowed to equilibrate for 1 hour at room temperature.
Lipid substrates are prepared by creating lipid vesicles. In some cases, these vesicles include a carrier lipid, such as phosphatidylserine (PS). In the assay conditions section above, “PIP2:PS” refers to large unilamellar vesicles (LUVs) containing five mole percent L-α-Phosphatidylinositol-4,5-bisphosphate (PIP2) and ninety-five percent phosphatidylserine (PS), and the concentration listed refers only to the PIP2 substrate, not the PS carrier lipid.

[2] = IC50 (nM) mTOR, Table 1, 10 μM ATP
[3] = Table 1, 25 μM ATP, read-out: IC50 (nM) PI3Kα

T1 sequence (P42336 whole entry): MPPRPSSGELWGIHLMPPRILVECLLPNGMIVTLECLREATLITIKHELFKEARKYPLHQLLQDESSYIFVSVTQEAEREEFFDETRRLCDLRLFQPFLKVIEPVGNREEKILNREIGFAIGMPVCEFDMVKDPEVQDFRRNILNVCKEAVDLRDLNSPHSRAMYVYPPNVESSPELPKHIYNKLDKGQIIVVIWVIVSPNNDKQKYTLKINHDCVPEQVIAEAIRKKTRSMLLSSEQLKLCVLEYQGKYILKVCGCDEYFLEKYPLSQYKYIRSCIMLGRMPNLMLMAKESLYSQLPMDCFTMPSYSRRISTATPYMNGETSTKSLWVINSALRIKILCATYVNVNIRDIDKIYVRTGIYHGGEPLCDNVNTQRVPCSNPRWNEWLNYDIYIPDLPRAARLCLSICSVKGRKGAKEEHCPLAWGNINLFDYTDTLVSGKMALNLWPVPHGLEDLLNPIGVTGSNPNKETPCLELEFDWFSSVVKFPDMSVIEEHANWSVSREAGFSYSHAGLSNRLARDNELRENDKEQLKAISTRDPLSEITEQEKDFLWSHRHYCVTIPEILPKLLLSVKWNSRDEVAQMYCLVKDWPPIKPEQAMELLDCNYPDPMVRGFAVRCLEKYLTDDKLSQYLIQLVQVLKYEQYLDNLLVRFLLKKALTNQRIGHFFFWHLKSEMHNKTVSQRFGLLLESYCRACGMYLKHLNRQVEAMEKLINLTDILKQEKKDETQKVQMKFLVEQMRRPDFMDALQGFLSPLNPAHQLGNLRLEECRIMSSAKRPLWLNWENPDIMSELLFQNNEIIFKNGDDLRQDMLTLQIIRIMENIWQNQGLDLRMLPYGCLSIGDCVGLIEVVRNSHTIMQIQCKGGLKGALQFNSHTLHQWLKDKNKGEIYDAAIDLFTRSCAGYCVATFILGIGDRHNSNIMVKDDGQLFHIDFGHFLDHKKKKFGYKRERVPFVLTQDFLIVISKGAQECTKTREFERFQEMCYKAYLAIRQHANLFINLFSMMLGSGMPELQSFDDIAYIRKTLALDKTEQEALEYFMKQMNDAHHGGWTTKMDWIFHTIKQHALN
T1 sequence (P27986 whole entry partner): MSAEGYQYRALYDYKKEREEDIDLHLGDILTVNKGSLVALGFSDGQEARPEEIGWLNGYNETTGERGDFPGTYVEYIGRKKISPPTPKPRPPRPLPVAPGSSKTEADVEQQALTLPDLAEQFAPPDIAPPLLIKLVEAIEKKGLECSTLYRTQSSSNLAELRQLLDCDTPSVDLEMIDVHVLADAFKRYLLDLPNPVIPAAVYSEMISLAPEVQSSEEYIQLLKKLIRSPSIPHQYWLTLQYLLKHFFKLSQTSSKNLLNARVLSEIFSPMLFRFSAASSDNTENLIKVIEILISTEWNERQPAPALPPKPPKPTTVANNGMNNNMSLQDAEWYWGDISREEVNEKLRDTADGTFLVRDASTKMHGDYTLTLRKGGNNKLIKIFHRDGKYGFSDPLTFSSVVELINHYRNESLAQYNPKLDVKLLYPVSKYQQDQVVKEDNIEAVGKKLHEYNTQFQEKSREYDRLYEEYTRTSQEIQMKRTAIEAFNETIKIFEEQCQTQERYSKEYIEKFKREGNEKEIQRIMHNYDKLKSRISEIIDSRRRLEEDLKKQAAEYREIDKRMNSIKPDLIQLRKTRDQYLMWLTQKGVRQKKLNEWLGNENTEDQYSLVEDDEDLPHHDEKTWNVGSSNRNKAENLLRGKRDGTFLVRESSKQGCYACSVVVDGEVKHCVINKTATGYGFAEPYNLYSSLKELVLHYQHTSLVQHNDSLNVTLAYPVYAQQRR
mTOR, sequence (P42345 1360-2549): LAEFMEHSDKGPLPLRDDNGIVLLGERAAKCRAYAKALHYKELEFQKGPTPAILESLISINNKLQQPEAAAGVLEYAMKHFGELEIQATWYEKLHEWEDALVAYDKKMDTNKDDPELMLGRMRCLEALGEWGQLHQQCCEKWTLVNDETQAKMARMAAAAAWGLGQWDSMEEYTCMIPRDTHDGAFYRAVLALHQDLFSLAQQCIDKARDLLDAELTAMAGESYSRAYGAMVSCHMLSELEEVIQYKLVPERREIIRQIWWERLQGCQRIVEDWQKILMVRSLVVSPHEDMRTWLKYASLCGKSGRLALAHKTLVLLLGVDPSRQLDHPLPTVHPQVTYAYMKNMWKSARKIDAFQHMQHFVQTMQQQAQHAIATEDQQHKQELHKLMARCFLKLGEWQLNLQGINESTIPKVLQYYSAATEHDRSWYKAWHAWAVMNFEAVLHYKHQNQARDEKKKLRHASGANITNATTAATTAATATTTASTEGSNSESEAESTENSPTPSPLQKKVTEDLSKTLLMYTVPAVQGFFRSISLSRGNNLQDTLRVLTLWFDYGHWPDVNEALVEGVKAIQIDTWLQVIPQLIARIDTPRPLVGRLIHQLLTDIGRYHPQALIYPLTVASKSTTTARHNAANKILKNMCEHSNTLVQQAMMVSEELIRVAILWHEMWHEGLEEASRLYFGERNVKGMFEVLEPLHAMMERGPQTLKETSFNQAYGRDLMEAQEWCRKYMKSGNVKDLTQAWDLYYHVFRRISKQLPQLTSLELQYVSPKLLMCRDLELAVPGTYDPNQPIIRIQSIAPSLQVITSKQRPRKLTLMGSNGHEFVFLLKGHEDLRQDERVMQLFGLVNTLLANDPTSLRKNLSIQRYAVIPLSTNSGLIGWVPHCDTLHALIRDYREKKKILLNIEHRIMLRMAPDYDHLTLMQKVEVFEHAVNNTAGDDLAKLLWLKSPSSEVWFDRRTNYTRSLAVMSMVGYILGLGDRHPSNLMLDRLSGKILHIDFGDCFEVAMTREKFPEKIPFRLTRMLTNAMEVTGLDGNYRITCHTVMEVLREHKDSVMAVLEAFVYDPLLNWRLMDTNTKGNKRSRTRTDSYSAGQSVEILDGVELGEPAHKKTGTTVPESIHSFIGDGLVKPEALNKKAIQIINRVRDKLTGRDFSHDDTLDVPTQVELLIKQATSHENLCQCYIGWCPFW

IC50 (mTOR; [2]) | IC50 [1, 3] | IC50 (mTOR; IC50 value for mTOR, exact value in text) | IC50 ([1]; exact value in text, read-out: IC50 value for PI3K) | SMILES
> 1000 nM | > 1000 nM | – | – | CC(=O)Nc1nc2ccc(-c3ccc(C(C)(C)C#N)cc3)nc2s1 [Example 5, N-(5-(4-(2-Cyanopropan-2-yl)phenyl)thiazolo[5,4-b]pyridin-2-yl)acetamide]
> 1000 nM | > 1000 nM | – | – | CC(=O)Nc1nc2ccc(-c3cccc4[nH]ccc34)cc2s1 [Example 14, N-(6-(1H-Indol-4-yl)benzo[d]thiazol-2-yl)acetamide]
> 1000 nM | > 1000 nM | – | – | CNS(=O)(=O)c1ccc(-c2ccc3nc(NC(C)=O)sc3n2)cc1 [Example 28, N-(5-(4-(N-Methylsulfamoyl)phenyl)thiazolo[5,4-b]pyridine-2-yl)acetamide]
< 100 nM | – | – | – | CS(=O)(=O)Nc1cc(-c2ccc3nc(NC(=O)C4CC4)sc3n2)cnc1Cl [Example 9, N-(5-(6-Chloro-5-(methylsulfonamido)pyridin-3-yl)thiazolo[5,4-b]pyridin-2-yl)cyclopropanecarboxamide]
> 1000 nM | – | – | – | CC(=O)Nc1nc2ccc(-c3ccncc3)nc2s1 [Example 33, N-(5-(Pyridin-4-yl)thiazolo[5,4-b]pyridin-2-yl)acetamide]
> 1000 nM | > 1000 nM | – | – | CC(=O)Nc1nc2ccc(-c3cc(NS(C)(=O)=O)c4[nH]ccc4c3)cc2s1 [Example 32, N-(6-(7-(Methylsulfonamido)-1H-indol-5-yl)benzo[d]thiazol-2-yl)acetamide]
> 1000 nM | – | – | – | CC(=O)Nc1nc2ccc(-c3cnc(Cl)c(NS(=O)(=O)C4CC4)c3)nc2s1 [Example 49, N-(5-(6-Chloro-5-(cyclopropanesulfonamido)pyridin-3-yl)thiazolo[5,4-b]pyridin-2-yl)acetamide]
< 100 nM | – | – | – | CC(=O)Nc1nc2ccc(-c3cnc4cc[nH]c4c3)nc2s1 [Example 25, N-(5-(1H-Pyrrolo[3,2-b]pyridin-6-yl)thiazolo[5,4-b]pyridin-2-yl)acetamide]
> 1000 nM | – | – | – | CC(=O)Nc1nc2ccc(-c3ccc(N)cc3)cc2s1 [Example 13, N-(6-(4-Aminophenyl)benzo[d]thiazol-2-yl)acetamide]
100 to 1000 nM | 100 to 1000 nM | 790 nM | 310 nM | CC(=O)Nc1nc2ccc(-c3ccc(NS(C)(=O)=O)cc3)nc2s1 [Example 29, N-(5-(4-(Methylsulfonamido)phenyl)thiazolo[5,4-b]pyridin-2-yl)acetamide]
100 to 1000 nM | – | – | – | CC(=O)Nc1ccc(-c2ccc3nc(NC(C)=O)sc3c2)cc1 [Example 39, N-(4-(2-Acetamidobenzo[d]thiazol-6-yl)phenyl)acetamide]
< 100 nM | – | – | – | CC(=O)Nc1nc2ccc(-c3cnc4[nH]ccc4c3)nc2s1 [Example 24, N-(5-(1H-Pyrrolo[2,3-b]pyridin-5-yl)thiazolo[5,4-b]pyridin-2-yl)acetamide]
> 1000 nM | > 1000 nM | – | – | CC(=O)Nc1nc2ccc(-c3ccc(S(C)(=O)=O)cc3)nc2s1 [Example 26, N-(5-(4-(Methylsulfonyl)phenyl)thiazolo[5,4-b]pyridine-2-yl)acetamide]
> 1000 nM | > 1000 nM | – | – | CC(=O)Nc1cccc(-c2ccc3nc(NC(C)=O)sc3c2)c1 [Example 41, N-(3-(2-Acetamidobenzo[d]thiazol-6-yl)phenyl)acetamide]
100 to 1000 nM | > 1000 nM | – | – | CC(=O)Nc1nc2ccc(-c3ccc4[nH]cc(C#N)c4c3)cc2s1 [Example 16, N-(6-(3-Cyano-1H-indol-5-yl)benzo[d]thiazol-2-yl)acetamide]
100 to 1000 nM | – | – | – | CC(=O)Nc1nc2ccc(-c3cnc(N)cn3)cc2s1 [Example 20, N-(6-(5-Aminopyrazin-2-yl)benzo[d]thiazol-2-yl)acetamide]
< 100 nM | – | – | – | CC(=O)Nc1nc2ccc(-c3cnc(Cl)c(NS(=O)(=O)c4ccccc4)c3)nc2s1 [Example 7, N-(5-(6-Chloro-5-(phenylsulfonamido)pyridin-3-yl)thiazolo[5,4-b]pyridin-2-yl)acetamide]
> 1000 nM | – | – | – | CC(=O)Nc1nc2ccc(-c3ccc(N)cc3C(F)(F)F)cc2s1 [Example 19, N-(6-(4-Amino-2-(trifluoromethyl)phenyl)benzo[d]thiazol-2-yl)acetamide]
< 100 nM | – | – | – | CNC(=O)c1ccc(-c2ccc3nc(NC(C)=O)sc3n2)cc1 [Example 35, 4-(2-Acetamidothiazolo[5,4-b]pyridin-5-yl)-N-methylbenzamide]
< 100 nM | – | – | – | CC(=O)Nc1nc2ccc(-c3ccc4[nH]cc(C=O)c4c3)cc2s1 [Example 15, N-(6-(3-Formyl-1H-indol-5-yl)benzo[d]thiazol-2-yl)acetamide]
> 1000 nM | – | – | – | CC(=O)Nc1nc2ccc(-c3ccccc3)cc2s1 [Example 10, N-(6-Phenylbenzo[d]thiazol-2-yl)acetamide]
100 to 1000 nM | – | – | – | CC(=O)Nc1nc2ccc(-c3ccc(C#N)nc3)nc2s1 [Example 23, N-(5-(6-Cyanopyridin-3-yl)thiazolo[5,4-b]pyridin-2-yl)acetamide]
100 to 1000 nM | – | – | – | CNC(=O)c1ccc(-c2ccc3nc(NC(C)=O)sc3n2)cn1 [Example 6, 5-(2-Acetamidothiazolo[5,4-b]pyridin-5-yl)-N-methylpicolinamide]
> 1000 nM | > 1000 nM | – | – | CC(=O)Nc1nc2ccc(-c3ccc4c(c3)NC(=O)CNC4=O)cc2s1 [Example 21, N-(6-(2,5-Dioxo-2,3,4,5-tetrahydro-1H-benzo[e][1,4]diazepin-8-yl)benzo[d]thiazol-2-yl)acetamide]
